Assay results published in patent US20260201008A1, “SECRETIN-DERIVED GLP1R SELECTIVE AGONISTS” (GUBRA A/S, priority 2023, published 2026).
Square brackets hold non-standard residues; d marks the D form. Peptide text beside a SMILES is read from it. Aib = CC(C)(N)C(=O)O

Columns and labels:
GLP1R = GLP1R (Homo sapiens, UniProt P43220); test: hGLP1R potency, cAMP accumulation in CHO-K1 cells stably overexpressing hGLP1R; type: cell-based; parameters: host or cells: CHO-K1; settings: for Selectivity: SCTR EC50/GLP1R EC50 ratio; for EC50: read-out: pEC50 hGLPR1 (converted)
Sequence of GLP1R (P43220 24-463): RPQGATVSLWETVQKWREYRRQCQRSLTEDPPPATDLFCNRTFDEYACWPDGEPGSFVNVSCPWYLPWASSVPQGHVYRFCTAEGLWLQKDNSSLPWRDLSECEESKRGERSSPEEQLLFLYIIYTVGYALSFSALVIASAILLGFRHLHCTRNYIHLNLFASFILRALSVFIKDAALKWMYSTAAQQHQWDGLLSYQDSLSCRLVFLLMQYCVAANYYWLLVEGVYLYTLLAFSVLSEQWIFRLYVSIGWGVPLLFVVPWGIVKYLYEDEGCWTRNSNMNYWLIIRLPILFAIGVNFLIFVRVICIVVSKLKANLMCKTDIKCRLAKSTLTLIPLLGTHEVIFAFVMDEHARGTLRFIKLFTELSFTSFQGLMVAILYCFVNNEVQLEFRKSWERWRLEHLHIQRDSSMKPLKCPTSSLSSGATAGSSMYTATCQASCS
From the text: (§1) Crude library peptides are screened in 10-fold serial dilutions of 5 concentrations, n=1 time. Tip change is done for the first two serial dilutions. Compound starting concentration (top) will be adjusted throughout the study if needed.
(§2) Purified peptides are screened in 3-fold serial dilutions of 11 concentrations, n=2 times. Tip change is done for all serial dilutions. Compound starting concentration (top) will be adjusted throughout the study. If the top concentration is adjusted or a 5-fold difference in calculated EC50 values is observed, n is increased by 1. EC50 values were calculated by nonlinear regression using sigmoid concentration-response with variable slope.
(§3) A CHO-K1 cell line stably overexpressing the hGLP1R was obtained from Euroscreen (FAST-0145L), expanded, aliquoted and frozen. An aliquot was thawed and plated in DPBS with 0.05% casein and 0.5 mM IBMX as 2000 cells/well in a 384-well format. The cells were then immediately stimulated for 30 min at room temperature with graded doses of test compound using human GLP-1(7-36) (synthesized at Gubra) as a positive control. cAMP accumulation was measured using a Cisbio assay for Gs coupled receptors (cat. no. 62AM4PEC), where the assay reagents were added as per the manufacturer's instructions and time-resolved fluorescence energy transfer recorded after one hour on a CLARIOstar (BMG Labtech) plate reader.

SCTR = SCTR (Homo sapiens, UniProt P47872); test: hSCTR potency, cAMP accumulation in CHO-K1 cells stably overexpressing hSCTR; type: cell-based; parameters: alternatively Euroscreen ES-712-AF; FAST-0161L; host or cells: CHO-K1; settings: Table 4, position X12 variants of GUB06-046; read-out: pEC50 hSCTR (converted)
Sequence of SCTR (P47872 23-440): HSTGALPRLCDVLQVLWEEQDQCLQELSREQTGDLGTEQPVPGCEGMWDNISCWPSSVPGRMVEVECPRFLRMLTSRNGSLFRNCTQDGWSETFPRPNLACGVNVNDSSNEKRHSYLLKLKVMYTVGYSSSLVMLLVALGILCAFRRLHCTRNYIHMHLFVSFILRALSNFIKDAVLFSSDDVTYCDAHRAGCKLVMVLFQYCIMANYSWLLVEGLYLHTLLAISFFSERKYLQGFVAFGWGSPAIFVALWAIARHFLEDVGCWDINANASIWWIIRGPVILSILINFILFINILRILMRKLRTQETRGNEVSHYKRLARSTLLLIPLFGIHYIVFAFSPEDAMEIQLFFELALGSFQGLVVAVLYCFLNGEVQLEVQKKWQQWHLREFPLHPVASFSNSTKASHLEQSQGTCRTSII
From the text: as §1, §2
as §3, with “Frozen division arrested CHO-K1 cells stably overexpressing the hSCTR were obtained from PerkinElmer (ES-712-AF). Alternatively, a CHO-K1” for “A CHO-K1”, “the hSCTR” for “the hGLP1R”, “Euroscreen (FAST-0161L),” for “Euroscreen (FAST-0145L),”, “human secretin” for “human GLP-1(7-36)”

[1] = Table 3, position X^10 variants of GUB06-046
[2] = Table 4, position X12 variants of GUB06-046

## CC[C@H](C)[C@H](NC(=O)[C@H](Cc1ccccc1)NC(=O)[C@H](CCCNC(=N)N)NC(=O)[C@H](CCC(N)=O)NC(=O)[C@H](CC(C)C)NC(=O)[C@H](C)NC(=O)[C@H](C)NC(=O)CNC(=O)[C@H](CCC(=O)O)NC(=O)[C@H](CC(C)C)NC(=O)[C@H](CC(C)C)NC(=O)[C@H](CCCNC(=N)N)NC(=O)[C@H](CO)NC(=O)[C@@H](NC(=O)[C@H](CC(=O)O)NC(=O)[C@H](CO)NC(=O)[C@@H](NC(=O)[C@H](Cc1ccccc1)NC(=O)[C@@H](NC(=O)CNC(=O)[C@H](CCC(=O)O)NC(=O)C(C)(C)NC(=O)[C@@H](N)Cc1c[nH]cn1)[C@@H](C)O)[C@@H](C)O)[C@@H](C)CC)C(=O)N[C@@H](CCC(N)=O)C(=O)N[C@@H](Cc1c[nH]c2ccccc12)C(=O)N[C@@H](CC(C)C)C(=O)N[C@H](C(N)=O)C(C)C [compound 218] (H-H[Aib]EGTFTSDISRLLEGAALQRFIQWLV-NH2)
GLP1R; [1]
  Selectivity: 459

## CC[C@H](C)[C@H](NC(=O)[C@H](Cc1ccccc1)NC(=O)[C@H](CCCNC(=N)N)NC(=O)[C@H](CCC(N)=O)NC(=O)[C@H](CC(C)C)NC(=O)[C@H](C)NC(=O)[C@H](C)NC(=O)CNC(=O)[C@H](CCC(=O)O)NC(=O)[C@H](CC(C)C)NC(=O)[C@H](CC(C)C)NC(=O)[C@H](CCCNC(=N)N)NC(=O)[C@H](CO)NC(=O)[C@H](Cc1c[nH]c2ccccc12)NC(=O)[C@H](CC(=O)O)NC(=O)[C@H](CO)NC(=O)[C@@H](NC(=O)[C@H](Cc1ccccc1)NC(=O)[C@@H](NC(=O)CNC(=O)[C@H](CCC(=O)O)NC(=O)C(C)(C)NC(=O)[C@@H](N)Cc1c[nH]cn1)[C@@H](C)O)[C@@H](C)O)C(=O)N[C@@H](CCC(N)=O)C(=O)N[C@@H](Cc1c[nH]c2ccccc12)C(=O)N[C@@H](CC(C)C)C(=O)N[C@H](C(N)=O)C(C)C [compound 219] (H-H[Aib]EGTFTSDWSRLLEGAALQRFIQWLV-NH2)
GLP1R; [1]
  Selectivity: 478

## CC[C@H](C)[C@H](NC(=O)[C@H](Cc1ccccc1)NC(=O)[C@H](CCCNC(=N)N)NC(=O)[C@H](CCC(N)=O)NC(=O)[C@H](CC(C)C)NC(=O)[C@H](C)NC(=O)[C@H](C)NC(=O)CNC(=O)[C@H](CCC(=O)O)NC(=O)[C@H](CC(C)C)NC(=O)[C@H](CC(C)C)NC(=O)[C@@H](NC(=O)[C@H](CO)NC(=O)[C@H](CC(C)C)NC(=O)[C@H](CC(=O)O)NC(=O)[C@H](CO)NC(=O)[C@@H](NC(=O)[C@H](Cc1ccccc1)NC(=O)[C@@H](NC(=O)CNC(=O)[C@H](CCC(=O)O)NC(=O)C(C)(C)NC(=O)[C@@H](N)Cc1c[nH]cn1)[C@@H](C)O)[C@@H](C)O)C(C)C)C(=O)N[C@@H](CCC(N)=O)C(=O)N[C@@H](Cc1c[nH]c2ccccc12)C(=O)N[C@@H](CC(C)C)C(=O)N[C@H](C(N)=O)C(C)C [compound 227] (H-H[Aib]EGTFTSDLSVLLEGAALQRFIQWLV-NH2)
SCTR
  EC50: 1.26 nM
GLP1R; [2]
  Selectivity: 43
  EC50: 0.0316 nM

## CC[C@H](C)[C@H](NC(=O)[C@H](Cc1ccccc1)NC(=O)[C@H](CCCNC(=N)N)NC(=O)[C@H](CCC(N)=O)NC(=O)[C@H](CC(C)C)NC(=O)[C@H](C)NC(=O)[C@H](C)NC(=O)CNC(=O)[C@H](CCC(=O)O)NC(=O)[C@H](CC(C)C)NC(=O)[C@H](CC(C)C)NC(=O)C(C)(C)NC(=O)[C@H](CO)NC(=O)[C@H](CC(C)C)NC(=O)[C@H](CC(=O)O)NC(=O)[C@H](CO)NC(=O)[C@@H](NC(=O)[C@H](Cc1ccccc1)NC(=O)[C@@H](NC(=O)CNC(=O)[C@H](CCC(=O)O)NC(=O)C(C)(C)NC(=O)[C@@H](N)Cc1c[nH]cn1)[C@@H](C)O)[C@@H](C)O)C(=O)N[C@@H](CCC(N)=O)C(=O)N[C@@H](Cc1c[nH]c2ccccc12)C(=O)N[C@@H](CC(C)C)C(=O)N[C@H](C(N)=O)C(C)C [compound 223] (H-H[Aib]EGTFTSDLS[Aib]LLEGAALQRFIQWLV-NH2)
SCTR
  EC50: 5.01 nM
GLP1R; [2]
  Selectivity: 78
  EC50: 0.0631 nM

## CC[C@H](C)[C@H](NC(=O)[C@H](Cc1ccccc1)NC(=O)[C@H](CCCNC(=N)N)NC(=O)[C@H](CCC(N)=O)NC(=O)[C@H](CC(C)C)NC(=O)[C@H](C)NC(=O)[C@H](C)NC(=O)CNC(=O)[C@H](CCC(=O)O)NC(=O)[C@H](CC(C)C)NC(=O)[C@H](CC(C)C)NC(=O)[C@H](CCCNC(=N)N)NC(=O)[C@H](CO)NC(=O)[C@@H]1CCCN1C(=O)[C@H](CC(=O)O)NC(=O)[C@H](CO)NC(=O)[C@@H](NC(=O)[C@H](Cc1ccccc1)NC(=O)[C@@H](NC(=O)CNC(=O)[C@H](CCC(=O)O)NC(=O)C(C)(C)NC(=O)[C@@H](N)Cc1c[nH]cn1)[C@@H](C)O)[C@@H](C)O)C(=O)N[C@@H](CCC(N)=O)C(=O)N[C@@H](Cc1c[nH]c2ccccc12)C(=O)N[C@@H](CC(C)C)C(=O)N[C@H](C(N)=O)C(C)C [compound 221] (H-H[Aib]EGTFTSDPSRLLEGAALQRFIQWLV-NH2)
GLP1R; [1]
  Selectivity: 2086

## CC[C@H](C)[C@H](NC(=O)[C@H](Cc1ccccc1)NC(=O)[C@H](CCCNC(=N)N)NC(=O)[C@H](CCC(N)=O)NC(=O)[C@H](CC(C)C)NC(=O)[C@H](C)NC(=O)[C@H](C)NC(=O)CNC(=O)[C@H](CCC(=O)O)NC(=O)[C@H](CC(C)C)NC(=O)[C@H](CC(C)C)NC(=O)[C@H](Cc1ccccc1)NC(=O)[C@H](CO)NC(=O)[C@H](CC(C)C)NC(=O)[C@H](CC(=O)O)NC(=O)[C@H](CO)NC(=O)[C@@H](NC(=O)[C@H](Cc1ccccc1)NC(=O)[C@@H](NC(=O)CNC(=O)[C@H](CCC(=O)O)NC(=O)C(C)(C)NC(=O)[C@@H](N)Cc1c[nH]cn1)[C@@H](C)O)[C@@H](C)O)C(=O)N[C@@H](CCC(N)=O)C(=O)N[C@@H](Cc1c[nH]c2ccccc12)C(=O)N[C@@H](CC(C)C)C(=O)N[C@H](C(N)=O)C(C)C [compound 225] (H-H[Aib]EGTFTSDLSFLLEGAALQRFIQWLV-NH2)
SCTR
  EC50: 7.94 nM
GLP1R; [2]
  Selectivity: 328
  EC50: 0.0251 nM

## CC[C@H](C)[C@H](NC(=O)[C@H](Cc1ccccc1)NC(=O)[C@H](CCCNC(=N)N)NC(=O)[C@H](CCC(N)=O)NC(=O)[C@H](CC(C)C)NC(=O)[C@H](C)NC(=O)[C@H](C)NC(=O)CNC(=O)[C@H](CCC(=O)O)NC(=O)[C@H](CC(C)C)NC(=O)[C@H](CC(C)C)NC(=O)[C@H](CCCNC(=N)N)NC(=O)[C@H](CO)NC(=O)[C@@H](NC(=O)[C@H](CC(=O)O)NC(=O)[C@H](CO)NC(=O)[C@@H](NC(=O)[C@H](Cc1ccccc1)NC(=O)[C@@H](NC(=O)CNC(=O)[C@H](CCC(=O)O)NC(=O)C(C)(C)NC(=O)[C@@H](N)Cc1c[nH]cn1)[C@@H](C)O)[C@@H](C)O)C(C)C)C(=O)N[C@@H](CCC(N)=O)C(=O)N[C@@H](Cc1c[nH]c2ccccc12)C(=O)N[C@@H](CC(C)C)C(=O)N[C@H](C(N)=O)C(C)C [compound 220] (H-H[Aib]EGTFTSDVSRLLEGAALQRFIQWLV-NH2)
GLP1R; [1]
  Selectivity: 891

## CC[C@H](C)[C@H](NC(=O)[C@H](Cc1ccccc1)NC(=O)[C@H](CCCNC(=N)N)NC(=O)[C@H](CCC(N)=O)NC(=O)[C@H](CC(C)C)NC(=O)[C@H](C)NC(=O)[C@H](C)NC(=O)CNC(=O)[C@H](CCC(=O)O)NC(=O)[C@H](CC(C)C)NC(=O)[C@H](CC(C)C)NC(=O)[C@H](CCCNC(=N)N)NC(=O)[C@H](CO)NC(=O)[C@H](Cc1ccc(O)cc1)NC(=O)[C@H](CC(=O)O)NC(=O)[C@H](CO)NC(=O)[C@@H](NC(=O)[C@H](Cc1ccccc1)NC(=O)[C@@H](NC(=O)CNC(=O)[C@H](CCC(=O)O)NC(=O)C(C)(C)NC(=O)[C@@H](N)Cc1c[nH]cn1)[C@@H](C)O)[C@@H](C)O)C(=O)N[C@@H](CCC(N)=O)C(=O)N[C@@H](Cc1c[nH]c2ccccc12)C(=O)N[C@@H](CC(C)C)C(=O)N[C@H](C(N)=O)C(C)C [compound 217] (H-H[Aib]EGTFTSDYSRLLEGAALQRFIQWLV-NH2)
GLP1R; [1]
  Selectivity: 114
